Results published in ChEMBL document CHEMBL5465560, “Selectivity Literature for EUbOPEN Chemogenomic Library” (2024).
Values belong to the compound of their own block, whether it stands above or below them.

Key:
[1] = biological target: Tyrosine-protein kinase CSK (Homo sapiens) (UniProt P41240); assay: Selectivity interaction (Millipore kinase profiler) EUB0000124b CSK; conditions: at 10 µM
[2] = biological target: Protein kinase C alpha type (Homo sapiens, UniProt P17252); assay: Selectivity interaction (Millipore kinase profiler) EUB0000124b PRKCA; conditions: at 10 µM
[3] = biological target: Serine/threonine-protein kinase tousled-like 2 (Homo sapiens) (UniProt Q86UE8); assay: Selectivity interaction (KinomeScan (DiscoverX)) EUB0001049a TLK2; conditions: at 1 µM
[4] = biological target: Homeodomain-interacting protein kinase 2 (Homo sapiens, UniProt Q9H2X6); assay: Selectivity interaction (Ambit KINOMEscan and KiNATiv profiling in Jurkat cells) EUB0000090b HIPK2; assay type: cell-based; conditions: at 1 µM
Chain of Homeodomain-interacting protein kinase 2 (Q9H2X6 whole entry, looked up): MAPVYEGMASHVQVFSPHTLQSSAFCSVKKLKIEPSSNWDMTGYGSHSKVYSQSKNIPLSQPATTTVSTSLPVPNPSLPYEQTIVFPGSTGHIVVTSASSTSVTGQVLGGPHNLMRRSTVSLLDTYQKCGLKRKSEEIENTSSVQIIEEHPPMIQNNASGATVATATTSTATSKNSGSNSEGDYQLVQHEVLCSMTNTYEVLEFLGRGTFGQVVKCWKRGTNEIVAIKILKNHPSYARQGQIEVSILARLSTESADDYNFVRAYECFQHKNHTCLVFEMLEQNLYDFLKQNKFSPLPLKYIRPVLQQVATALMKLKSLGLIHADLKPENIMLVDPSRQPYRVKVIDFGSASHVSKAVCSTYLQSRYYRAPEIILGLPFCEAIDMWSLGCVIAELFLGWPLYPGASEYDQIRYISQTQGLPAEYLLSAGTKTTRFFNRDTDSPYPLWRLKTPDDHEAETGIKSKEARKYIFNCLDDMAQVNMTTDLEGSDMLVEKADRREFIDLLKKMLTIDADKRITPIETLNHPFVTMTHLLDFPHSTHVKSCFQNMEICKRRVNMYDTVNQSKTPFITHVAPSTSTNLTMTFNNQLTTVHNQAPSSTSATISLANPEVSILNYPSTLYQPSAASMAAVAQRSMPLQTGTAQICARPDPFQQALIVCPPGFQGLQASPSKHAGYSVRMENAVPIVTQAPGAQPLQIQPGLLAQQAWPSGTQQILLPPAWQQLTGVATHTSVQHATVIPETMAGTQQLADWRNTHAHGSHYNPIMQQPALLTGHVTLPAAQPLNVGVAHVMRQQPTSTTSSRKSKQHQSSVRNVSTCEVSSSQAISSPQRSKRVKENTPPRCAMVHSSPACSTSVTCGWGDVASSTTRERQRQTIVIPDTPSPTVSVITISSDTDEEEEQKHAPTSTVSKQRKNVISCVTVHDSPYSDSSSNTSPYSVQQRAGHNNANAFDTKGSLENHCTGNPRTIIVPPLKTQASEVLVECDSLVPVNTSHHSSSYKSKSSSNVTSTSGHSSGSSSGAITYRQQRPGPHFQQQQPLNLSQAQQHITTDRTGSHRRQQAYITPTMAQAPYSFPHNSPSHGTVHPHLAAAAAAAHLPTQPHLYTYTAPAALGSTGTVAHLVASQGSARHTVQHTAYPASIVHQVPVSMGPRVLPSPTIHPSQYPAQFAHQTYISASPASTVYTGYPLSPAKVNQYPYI

[5] = biological target: T1, Mitogen-activated protein kinase kinase kinase 5 (Homo sapiens) (UniProt Q99683); assay: Selectivity interaction (Kinase panel (Invitrogen)) EUB0000639a MAP3K5; conditions: at 200 nM
T1 sequence (whole entry): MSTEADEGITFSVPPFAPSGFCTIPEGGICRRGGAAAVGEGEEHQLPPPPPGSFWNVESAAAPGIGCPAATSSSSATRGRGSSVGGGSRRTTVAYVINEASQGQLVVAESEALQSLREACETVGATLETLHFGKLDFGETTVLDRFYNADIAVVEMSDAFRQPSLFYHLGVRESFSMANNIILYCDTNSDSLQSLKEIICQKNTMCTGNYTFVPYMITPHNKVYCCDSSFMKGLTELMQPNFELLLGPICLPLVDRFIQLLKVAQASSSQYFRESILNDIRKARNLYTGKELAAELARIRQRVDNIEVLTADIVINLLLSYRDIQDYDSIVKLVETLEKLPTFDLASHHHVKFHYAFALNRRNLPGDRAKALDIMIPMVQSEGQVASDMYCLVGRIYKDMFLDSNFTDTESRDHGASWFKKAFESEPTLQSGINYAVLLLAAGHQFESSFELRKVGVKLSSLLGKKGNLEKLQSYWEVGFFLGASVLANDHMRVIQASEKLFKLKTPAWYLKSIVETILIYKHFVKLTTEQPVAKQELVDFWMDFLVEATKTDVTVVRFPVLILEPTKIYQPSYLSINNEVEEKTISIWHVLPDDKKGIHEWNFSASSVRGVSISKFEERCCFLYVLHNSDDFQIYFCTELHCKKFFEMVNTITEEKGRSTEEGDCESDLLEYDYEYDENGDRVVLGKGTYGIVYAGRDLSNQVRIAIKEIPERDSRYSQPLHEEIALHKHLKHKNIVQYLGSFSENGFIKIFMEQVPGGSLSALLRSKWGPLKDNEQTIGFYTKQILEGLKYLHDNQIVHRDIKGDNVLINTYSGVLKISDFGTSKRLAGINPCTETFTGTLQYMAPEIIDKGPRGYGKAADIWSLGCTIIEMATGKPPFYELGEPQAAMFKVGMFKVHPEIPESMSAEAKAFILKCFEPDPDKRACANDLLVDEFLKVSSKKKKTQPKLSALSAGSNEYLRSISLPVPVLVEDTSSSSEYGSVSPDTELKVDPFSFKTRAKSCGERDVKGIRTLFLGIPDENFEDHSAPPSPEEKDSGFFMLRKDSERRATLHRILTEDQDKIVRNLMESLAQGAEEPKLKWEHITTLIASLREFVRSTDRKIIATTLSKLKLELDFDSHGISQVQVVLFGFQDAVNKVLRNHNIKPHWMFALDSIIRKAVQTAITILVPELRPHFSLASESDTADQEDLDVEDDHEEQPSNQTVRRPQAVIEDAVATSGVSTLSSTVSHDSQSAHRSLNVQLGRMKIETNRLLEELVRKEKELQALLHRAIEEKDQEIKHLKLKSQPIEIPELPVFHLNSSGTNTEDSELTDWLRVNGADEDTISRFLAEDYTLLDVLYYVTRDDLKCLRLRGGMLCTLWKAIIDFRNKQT

[6] = biological target: 5'-AMP-activated protein kinase catalytic subunit alpha-2 (Homo sapiens) (UniProt P54646); assay: Selectivity interaction (ActivX KiNativ screen (kinase selectivity in THP-1 cell lysates)) EUB0000639a PRKAA2; assay type: subcellular; conditions: lysate, at 0.04 µM
[7] = biological target: T2, Tyrosine-protein kinase JAK2 (Homo sapiens, UniProt O60674); assay: Selectivity interaction (Kinase panel (33PanQinase(R) Activity Assay)) EUB0000877a JAK2
T2 sequence (O60674 whole entry): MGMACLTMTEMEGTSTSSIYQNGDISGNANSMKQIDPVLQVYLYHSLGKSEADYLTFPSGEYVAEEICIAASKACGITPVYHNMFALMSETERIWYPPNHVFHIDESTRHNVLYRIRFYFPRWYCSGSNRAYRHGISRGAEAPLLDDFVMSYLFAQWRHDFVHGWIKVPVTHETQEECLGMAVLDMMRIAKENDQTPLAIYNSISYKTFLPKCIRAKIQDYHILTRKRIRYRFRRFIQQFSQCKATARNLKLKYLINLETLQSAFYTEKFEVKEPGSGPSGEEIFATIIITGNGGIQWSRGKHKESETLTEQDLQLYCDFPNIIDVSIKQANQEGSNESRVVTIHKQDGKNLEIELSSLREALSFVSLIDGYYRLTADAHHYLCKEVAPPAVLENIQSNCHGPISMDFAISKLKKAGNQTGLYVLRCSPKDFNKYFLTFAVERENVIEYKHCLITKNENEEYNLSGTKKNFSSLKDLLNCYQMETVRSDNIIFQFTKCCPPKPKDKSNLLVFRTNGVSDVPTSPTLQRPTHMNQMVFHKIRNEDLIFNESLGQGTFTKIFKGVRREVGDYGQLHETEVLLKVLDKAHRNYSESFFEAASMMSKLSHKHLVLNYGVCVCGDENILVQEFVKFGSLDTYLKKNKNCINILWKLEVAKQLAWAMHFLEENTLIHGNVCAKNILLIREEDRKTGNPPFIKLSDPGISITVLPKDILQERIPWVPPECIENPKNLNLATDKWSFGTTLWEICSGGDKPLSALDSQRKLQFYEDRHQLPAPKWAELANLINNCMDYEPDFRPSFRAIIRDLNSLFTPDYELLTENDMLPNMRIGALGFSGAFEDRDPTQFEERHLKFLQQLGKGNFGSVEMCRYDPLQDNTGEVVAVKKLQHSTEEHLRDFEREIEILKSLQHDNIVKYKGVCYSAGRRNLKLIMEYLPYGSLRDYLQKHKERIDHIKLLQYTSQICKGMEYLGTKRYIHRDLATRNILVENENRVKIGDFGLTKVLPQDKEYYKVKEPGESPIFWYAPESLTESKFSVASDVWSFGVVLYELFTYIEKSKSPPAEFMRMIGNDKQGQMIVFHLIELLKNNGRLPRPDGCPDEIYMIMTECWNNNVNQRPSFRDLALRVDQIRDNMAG

[8] = biological target: Tyrosine-protein kinase receptor Tie-1 (Homo sapiens) (UniProt P35590); assay: Selectivity interaction (KinomeScan (DiscoverX)) EUB0000695a TIE1; conditions: at 100 nM
Chain of Tyrosine-protein kinase receptor Tie-1 (Homo sapiens) (P35590 whole entry): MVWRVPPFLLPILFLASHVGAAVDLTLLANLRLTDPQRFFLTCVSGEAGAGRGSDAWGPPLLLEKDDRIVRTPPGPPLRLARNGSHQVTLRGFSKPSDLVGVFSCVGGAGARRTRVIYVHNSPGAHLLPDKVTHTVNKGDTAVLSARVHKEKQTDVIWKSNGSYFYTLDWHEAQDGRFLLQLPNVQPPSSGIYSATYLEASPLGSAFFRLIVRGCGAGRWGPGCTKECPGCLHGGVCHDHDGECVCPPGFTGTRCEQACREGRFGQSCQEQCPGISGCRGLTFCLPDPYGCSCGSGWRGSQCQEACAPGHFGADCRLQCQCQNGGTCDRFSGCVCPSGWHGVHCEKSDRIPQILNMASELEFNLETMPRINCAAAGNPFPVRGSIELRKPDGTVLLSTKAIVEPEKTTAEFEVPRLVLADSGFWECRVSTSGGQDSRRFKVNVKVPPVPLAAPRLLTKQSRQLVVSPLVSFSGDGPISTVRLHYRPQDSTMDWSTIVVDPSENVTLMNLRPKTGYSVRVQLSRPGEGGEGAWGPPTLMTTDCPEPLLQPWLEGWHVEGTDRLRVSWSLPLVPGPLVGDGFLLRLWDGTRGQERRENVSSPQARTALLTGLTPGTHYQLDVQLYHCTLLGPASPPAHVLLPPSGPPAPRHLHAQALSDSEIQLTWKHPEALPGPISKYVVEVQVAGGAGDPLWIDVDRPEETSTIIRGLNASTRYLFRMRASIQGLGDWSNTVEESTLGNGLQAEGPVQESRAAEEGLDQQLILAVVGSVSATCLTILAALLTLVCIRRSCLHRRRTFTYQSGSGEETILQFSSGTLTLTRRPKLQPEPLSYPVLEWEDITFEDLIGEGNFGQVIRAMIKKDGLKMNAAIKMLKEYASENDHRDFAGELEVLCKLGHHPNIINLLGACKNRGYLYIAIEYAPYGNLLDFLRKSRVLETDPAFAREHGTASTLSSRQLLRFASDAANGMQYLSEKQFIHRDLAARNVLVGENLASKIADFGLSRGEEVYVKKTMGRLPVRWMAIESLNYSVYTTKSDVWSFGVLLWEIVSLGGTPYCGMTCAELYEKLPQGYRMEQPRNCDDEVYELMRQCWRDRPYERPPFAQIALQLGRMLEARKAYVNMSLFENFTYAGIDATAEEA

[9] = biological target: Thyrotropin-releasing hormone receptor (Homo sapiens) (UniProt P34981); assay: Selectivity interaction (Eurofins CEREP Diversity Profile (receptors and ion channels)) EUB0000279b TRH; conditions: at 10 µM
[10] = biological target: T1, Mitogen-activated protein kinase kinase kinase 5 (Homo sapiens); conditions: at 10 µM
[11] = biological target: Mitogen-activated protein kinase 11 (Homo sapiens) (UniProt Q15759); assay: Selectivity interaction (KinomeScan (DiscoverX)) EUB0000229b MAPK11; conditions: at 10 µM
Chain of Mitogen-activated protein kinase 11 (Homo sapiens) (Q15759 whole entry): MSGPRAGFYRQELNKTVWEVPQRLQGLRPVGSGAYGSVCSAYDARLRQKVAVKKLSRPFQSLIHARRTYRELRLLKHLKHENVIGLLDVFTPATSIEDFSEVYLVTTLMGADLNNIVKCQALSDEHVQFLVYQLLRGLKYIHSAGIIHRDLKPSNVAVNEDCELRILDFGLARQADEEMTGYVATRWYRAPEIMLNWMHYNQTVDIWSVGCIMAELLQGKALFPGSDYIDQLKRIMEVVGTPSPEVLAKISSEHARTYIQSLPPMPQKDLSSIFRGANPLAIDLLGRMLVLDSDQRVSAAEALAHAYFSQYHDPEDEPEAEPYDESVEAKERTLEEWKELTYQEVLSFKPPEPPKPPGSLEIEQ

[12] = biological target: T2, Tyrosine-protein kinase JAK2; assay: Selectivity interaction (ProQinase) EUB0000171b JAK2
[13] = biological target: T3, SNF-related serine/threonine-protein kinase (Homo sapiens) (UniProt Q9NRH2); assay: Selectivity interaction (KinomeScan (DiscoverX)) EUB0000666a SNRK; conditions: at 10 µM
T3 sequence (whole entry): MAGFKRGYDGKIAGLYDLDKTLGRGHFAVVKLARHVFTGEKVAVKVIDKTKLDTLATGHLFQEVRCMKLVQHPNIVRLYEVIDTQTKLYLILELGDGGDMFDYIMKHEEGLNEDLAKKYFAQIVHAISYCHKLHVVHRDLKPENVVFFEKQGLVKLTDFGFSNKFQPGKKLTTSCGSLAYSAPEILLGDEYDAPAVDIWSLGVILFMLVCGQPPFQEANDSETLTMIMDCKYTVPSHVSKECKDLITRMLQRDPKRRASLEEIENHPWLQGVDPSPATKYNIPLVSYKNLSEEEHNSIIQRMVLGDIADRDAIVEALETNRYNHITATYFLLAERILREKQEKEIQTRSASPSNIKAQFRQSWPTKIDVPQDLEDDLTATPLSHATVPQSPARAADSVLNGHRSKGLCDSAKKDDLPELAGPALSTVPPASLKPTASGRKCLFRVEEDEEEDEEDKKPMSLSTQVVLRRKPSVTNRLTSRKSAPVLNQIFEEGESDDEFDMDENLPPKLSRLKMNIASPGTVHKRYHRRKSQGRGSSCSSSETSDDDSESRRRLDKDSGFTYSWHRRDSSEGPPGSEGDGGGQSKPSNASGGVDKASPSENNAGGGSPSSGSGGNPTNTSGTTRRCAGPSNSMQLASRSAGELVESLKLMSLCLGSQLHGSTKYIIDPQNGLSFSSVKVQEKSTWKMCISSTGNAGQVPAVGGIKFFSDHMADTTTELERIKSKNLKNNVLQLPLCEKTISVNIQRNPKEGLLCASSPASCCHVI

Chain of Tyrosine-protein kinase CSK (Homo sapiens) (P41240 2-450 limits assumed): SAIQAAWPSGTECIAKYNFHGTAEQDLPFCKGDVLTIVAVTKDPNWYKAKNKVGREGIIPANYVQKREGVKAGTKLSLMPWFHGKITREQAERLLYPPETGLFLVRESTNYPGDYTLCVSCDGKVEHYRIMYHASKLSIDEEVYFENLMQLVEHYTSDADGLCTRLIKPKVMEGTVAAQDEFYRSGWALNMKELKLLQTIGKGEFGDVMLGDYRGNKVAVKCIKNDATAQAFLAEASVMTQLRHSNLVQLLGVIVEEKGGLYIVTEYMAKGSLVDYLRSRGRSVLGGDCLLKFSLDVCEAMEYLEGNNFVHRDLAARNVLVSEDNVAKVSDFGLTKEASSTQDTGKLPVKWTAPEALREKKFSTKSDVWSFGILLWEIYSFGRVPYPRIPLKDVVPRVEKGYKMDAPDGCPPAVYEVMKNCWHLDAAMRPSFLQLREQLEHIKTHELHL

Compound: COc1cc(Nc2nc(C)cc(-c3cnn4nc(OC)ccc34)n2)cc(C(F)(F)F)c1
% of control [3]: 98%

Compound: CN(C)C/C=C/C(=O)Nc1ccc(C(=O)N2CCCC(Nc3ncc(Cl)c(-c4c[nH]c5ccccc45)n3)C2)cc1 (centres undefined)
% of control [4]: 70%

Compound: Cc1cc(F)c(C(=O)Nc2cccc(-c3nncn3C(C)C)n2)cc1-n1cnc(C2CC2)c1
% of control [8]: 87%

Compound: COc1cc(N(C)c2ccnc3ccc(C(F)(F)F)cc23)cc(OC)c1OC
% binding [11]: 90%

Compound: O=C(NOC[C@H](O)CO)c1ccc(F)c(F)c1Nc1ccc(I)cc1F
% of control [13]: 100%

More lines, now with the values ahead:

% of control [1]: 97%
% of control [2]: 101%
Compound: CC(=O)Nc1cccc(-n2c(=O)n(C3CC3)c(=O)c3c(Nc4ccc(I)cc4F)n(C)c(=O)c(C)c32)c1

% of inhibition [5]: -8.62%
% of inhibition [6]: -11.5%
Compound: CC[C@@H]1[C@H](F)C(=O)N[C@@H]1COc1nccc2cc(C(N)=O)c(OC)cc12 [ZIMLOVISERTIB]

IC50 [7]: > 10 µM
Compound: CCC(=O)N1CC[C@H](Nc2ncnc3c2CN(c2cnc(OC)c(C(F)(F)F)c2)CC3)C1 [LENIOLISIB]

% of control [9]: 94%
Compound: CC(=O)c1cc(-c2ccccc2OCC2CC2)c2ncccn12

% of control [10]: 100%
Compound: CCN(CC)CCCCNc1ncc2cc(-c3cc(OC)cc(OC)c3)c(NC(=O)NC(C)(C)C)nc2n1

% of control ([12]; at 1 µM): 80%
% of control ([12]; at 5 µM): 72%
Compound: C=CC(=O)Nc1cccc(C(=O)Nc2ccc(Nc3cc(-c4[nH]c(SC)nc4C)ccn3)cc2)c1
